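Growth conditions: 96-well plates. Treatment: test compound, 48 hours, 5 concentrations. Analysis: linear interpolation between bracketing concentrations; unreached endpoints set to highest concentration. GI50 = concentration required for 50% inhibition of growth. At the TGI there is no net growth.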
Experiments:
Test in all cases: NCI-60 cell line screen, 48 h
DU-145 prostate = system: DU-145 prostate
HCT-15 colon = system: HCT-15 colon
HOP-92 NSCLC = system: HOP-92 NSCLC
KM12 colon = system: KM12 colon
NCI-H226 lung = system: NCI-H226 lung
OVCAR-4 ovarian = system: OVCAR-4 ovarian
RXF 393 renal = system: RXF 393 renal
SK-OV-3 ovarian = system: SK-OV-3 ovarian
T-47D breast = system: T-47D breast
UACC-257 melanoma = system: UACC-257 melanoma

Row | Compound | GI50 (DU-145 prostate) | TGI (DU-145 prostate) | GI50 (HCT-15 colon) | TGI (HCT-15 colon) | GI50 (HOP-92 NSCLC) | TGI (HOP-92 NSCLC) | GI50 (KM12 colon) | TGI (KM12 colon) | GI50 (NCI-H226 lung) | TGI (NCI-H226 lung) | GI50 (OVCAR-4 ovarian) | TGI (OVCAR-4 ovarian) | GI50 (RXF 393 renal) | TGI (RXF 393 renal) | GI50 (SK-OV-3 ovarian) | TGI (SK-OV-3 ovarian) | GI50 (T-47D breast) | TGI (T-47D breast) | GI50 (UACC-257 melanoma) | TGI (UACC-257 melanoma)
1 | CC(C)N(Cc1ccc(F)cc1)c1ccc(CO)c(Cl)c1 | 11.1 µM | 23.3 µM | 5.23 µM | 20.7 µM | 0.205 µM | 4.22 µM | 10.9 µM | 23.4 µM | 0.054 µM | 0.179 µM | 0.116 µM | 1.7 µM | 2.51 µM | 19.6 µM | 4.83 µM | 17.9 µM | 0.0645 µM | 0.515 µM | 0.0837 µM | 0.316 µM
2 | COc1c(CC=C(C)C)c(O)c(C(CC(C)C)c2c(O)c(CC=C(C)C)c(O)c(C(C)=O)c2O)c(O)c1C(C)=O (stereo not given) | – | 16.5 µM | – | 2.62 µM | – | 0.562 µM | – | 5.05 µM | – | 10.6 µM | – | 14.4 µM | – | 11.1 µM | – | 11.1 µM | – | 16 µM | – | 5.11 µM
3 | O=C1/C(=C/c2ccccc2[N+](=O)[O-])COc2ccc(O)cc21 | 1.72 µM | 4.29 µM | 0.417 µM | 2.06 µM | 2.75 µM | 12.5 µM | 1.85 µM | 4.31 µM | 2.4 µM | 10.9 µM | 1.9 µM | 8.63 µM | 1.23 µM | 3.02 µM | 5.25 µM | 17.6 µM | 2.36 µM | 17.6 µM | 2.16 µM | 7.13 µM
4 | COc1cc(-c2ncn(/C=C\c3nnco3)n2)cc(C(F)(F)F)c1 | 0.416 µM | > 100 µM | 0.282 µM | > 100 µM | 0.952 µM | 46.5 µM | 0.705 µM | > 39.3 µM | 0.0312 µM | 4.3 µM | 0.211 µM | > 72.4 µM | 0.0307 µM | 0.198 µM | 0.979 µM | > 100 µM | 0.571 µM | > 59.9 µM | 0.368 µM | > 52.5 µM
5 | N#Cc1cc2c(cc1Cl)Sc1nnc(Nc3cccc4ccccc34)n1S2(=O)=O | 3.66 µM | 12.9 µM | 4.74 µM | 24.4 µM | 14.7 µM | 30.1 µM | 2.99 µM | 10.1 µM | 7.83 µM | 20.9 µM | 6.48 µM | 26.8 µM | 2.02 µM | 4.15 µM | 17.4 µM | 35.1 µM | 1.25 µM | 3.67 µM | 14.8 µM | 30.1 µM
6 | C=CCN(CC=C)C(=O)[C@H](CC)[C@@H]1CC[C@@H](C)[C@@H]([C@H](C)[C@@H](O)[C@@H](C)C(=O)[C@H](CC)C2O[C@]3(C=C[C@@H](O)[C@]4(CC[C@@](C)([C@H]5CC[C@](O)(CC)[C@H](C)O5)O4)O3)[C@H](C)C[C@@H]2C)O1 (stereo not given in full) | 2.46 µM | 5.61 µM | 2.05 µM | 4.81 µM | 1.39 µM | 4.31 µM | 1.87 µM | 3.65 µM | 1.86 µM | 4.92 µM | 2.63 µM | 10.1 µM | 1.57 µM | 3.47 µM | 3.51 µM | > 100 µM | 2.37 µM | 13.5 µM | 2.35 µM | 8.25 µM
7 | CSC1=Nc2c(c(C)c(-c3ccccc3)n2COC(CO)CO)C2=NC(=O)CN12 | > 100 µM | > 100 µM | > 100 µM | > 100 µM | > 100 µM | > 100 µM | > 100 µM | > 100 µM | 88.2 µM | > 100 µM | > 100 µM | > 100 µM | > 100 µM | > 100 µM | > 100 µM | > 100 µM | > 100 µM | > 100 µM | > 100 µM | > 100 µM
8 | CN(C)c1nc(N)c(C#N)c(C#N)c1C#N | – | > 10 µM | – | > 10 µM | – | > 10 µM | – | > 10 µM | – | > 10 µM | – | > 10 µM | – | > 10 µM | – | > 10 µM | – | > 10 µM | – | > 10 µM
